In US6046207A, “Benzopyranopyrrole and benzopyranopyridine α-1 adrenergic compounds” (priority 1997, dated 2000):
Read-outs that look alike come from different tables or passages of the source.

What was measured:
[1] = biological target: T1, α-1b (hamster) adrenoreceptor (Mesocricetus auratus, UniProt P18841); assay: biochemical; settings: read-out: Radioligand Binding Ki, 1b (Hamster)
T1 sequence (P18841 1-515): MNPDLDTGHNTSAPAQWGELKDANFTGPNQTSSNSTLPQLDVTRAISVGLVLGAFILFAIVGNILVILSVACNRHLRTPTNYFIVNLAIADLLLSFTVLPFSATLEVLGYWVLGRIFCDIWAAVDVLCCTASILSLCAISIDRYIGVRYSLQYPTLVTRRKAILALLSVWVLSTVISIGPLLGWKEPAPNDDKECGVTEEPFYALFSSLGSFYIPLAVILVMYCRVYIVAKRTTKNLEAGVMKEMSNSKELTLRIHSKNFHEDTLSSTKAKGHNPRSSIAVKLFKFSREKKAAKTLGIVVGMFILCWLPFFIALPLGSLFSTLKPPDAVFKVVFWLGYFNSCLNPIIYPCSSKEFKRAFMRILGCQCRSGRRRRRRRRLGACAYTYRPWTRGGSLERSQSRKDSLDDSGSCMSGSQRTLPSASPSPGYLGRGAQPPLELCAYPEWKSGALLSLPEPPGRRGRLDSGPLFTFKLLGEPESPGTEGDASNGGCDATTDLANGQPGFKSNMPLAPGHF
Procedure: (§1) In the following, for purposes of discussing alpha-1 adrenoreceptor subtypes, the IUPHAR convention of using lower case letters to define molecular clones and upper case letters to indicate pharmacologically defined adrenoreceptors has been followed. Moreover, the newly recommended nomenclature for alpha-1 (α1a, α1b, α1d) has been used.
(§2) Additionally, binding affinity against the pharmacologically defined α-1A adrenoreceptor (rat submaxillary gland) was measured.
(§3) The cDNA clones encoding the α-1 adrenoreceptors (α-1a, α-1b, and α-1d) were obtained from TULCO (Triangle Universities Licensing Consortium, Research Triangle Park, NC) and inserted into the eukaryotic expression vector SnaB30. In this vector, expression of the adrenoreceptor gene is under the transcriptional control of an SV40 early promoter. Positive drug selection is provided by a neomycin-resistance gene. Mouse fibroblast cells (LTK) were transfected with the α1 expression plasmids and grown in Dulbecco's modified Eagle's medium (DMEM) containing 10% fetal calf serum and 30 μM G418. Stable G418-resistant parental lines were generated, with successful expression of adrenoreceptor protein monitored using radioligand binding techniques. Stable single cell clones derived from the parental lines were screened in adrenoreceptor binding assays to identify clones having high adrenoreceptor density. […]

[2] = test system: α-1 adrenoreceptors; settings: cited from earlier work; for urinary flow rates and subjective symptom scores, longer term studies: BPH patients
[3] = biological target: T2, α-1B adrenoreceptor (rat spleen) (Rattus norvegicus, UniProt P15823); assay: Functional antagonism: inhibition of phenylephrine-induced contraction of rat spleen; set-up: species or system tissue; settings: for more potent effect on spleen smooth muscle: rat spleen versus the other tissues, in words
T2 construct: contraction of rat spleen; from tissue; host or cells: rat spleen
T2 sequence (P15823 1-515): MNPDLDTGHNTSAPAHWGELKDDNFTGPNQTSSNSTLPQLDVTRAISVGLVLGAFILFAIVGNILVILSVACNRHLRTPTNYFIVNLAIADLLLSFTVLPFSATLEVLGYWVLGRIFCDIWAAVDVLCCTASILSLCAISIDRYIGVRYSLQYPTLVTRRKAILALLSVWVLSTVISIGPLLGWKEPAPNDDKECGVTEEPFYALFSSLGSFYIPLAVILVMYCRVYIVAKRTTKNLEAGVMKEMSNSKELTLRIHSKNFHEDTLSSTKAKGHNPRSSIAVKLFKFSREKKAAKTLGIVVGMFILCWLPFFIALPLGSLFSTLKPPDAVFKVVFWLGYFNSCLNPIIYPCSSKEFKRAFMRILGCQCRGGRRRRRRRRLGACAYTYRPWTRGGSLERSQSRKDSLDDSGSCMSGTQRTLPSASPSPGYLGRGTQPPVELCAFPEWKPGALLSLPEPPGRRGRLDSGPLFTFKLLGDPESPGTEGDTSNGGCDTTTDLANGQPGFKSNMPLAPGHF
Excerpt: (§4) Functional assays indicative of pharmacologically defined α-1 adrenoreceptors were used to further characterize compounds. […] For each of these models, agonist dose response curves were repeated against increasing concentrations of test agent to derive a Schild plot [log ([…]) against log (molarity of test agent)] to determine the pA2.

[4] = biological target: T3, α-1a (bovine) adrenoreceptor (Bos taurus, UniProt P18130); assay: Radioligand binding, [3H]-prazosin displacement, cloned α-1a expressed in LTK cells; settings: cloned bovine α-1a, LTK cell membranes, [3H]prazosin 0.2 nM
T3 construct: expressed in transfected cells; host or cells: mouse fibroblast LTK cells, vector SnaB30, cDNA from TULCO
T3 sequence (P18130 1-466): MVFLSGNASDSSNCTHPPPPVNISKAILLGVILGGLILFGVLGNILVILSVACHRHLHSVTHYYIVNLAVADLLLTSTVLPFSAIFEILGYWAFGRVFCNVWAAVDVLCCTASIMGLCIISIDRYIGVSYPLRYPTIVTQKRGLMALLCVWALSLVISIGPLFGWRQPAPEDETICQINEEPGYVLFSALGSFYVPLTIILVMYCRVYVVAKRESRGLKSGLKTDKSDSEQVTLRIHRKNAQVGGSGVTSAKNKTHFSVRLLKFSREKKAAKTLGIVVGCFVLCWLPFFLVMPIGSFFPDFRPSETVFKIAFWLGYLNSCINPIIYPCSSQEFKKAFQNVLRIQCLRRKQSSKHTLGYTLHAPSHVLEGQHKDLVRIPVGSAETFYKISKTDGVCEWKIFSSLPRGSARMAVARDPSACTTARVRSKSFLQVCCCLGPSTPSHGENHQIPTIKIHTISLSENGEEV
Procedure: as §1, §2, §3

[5] = biological target: T4, α-1A adrenoreceptor (rat submaxillary gland) (Rattus norvegicus, UniProt P43140); assay: Radioligand binding, [3H]-prazosin displacement, α-1A (rat submaxillary gland); settings: [3H]prazosin 0.2 nM
T4 construct: Rat submaxillary glands were used for α-1A adrenoreceptors; from tissue; host or cells: rat submaxillary gland membranes
T4 sequence (P43140 1-466): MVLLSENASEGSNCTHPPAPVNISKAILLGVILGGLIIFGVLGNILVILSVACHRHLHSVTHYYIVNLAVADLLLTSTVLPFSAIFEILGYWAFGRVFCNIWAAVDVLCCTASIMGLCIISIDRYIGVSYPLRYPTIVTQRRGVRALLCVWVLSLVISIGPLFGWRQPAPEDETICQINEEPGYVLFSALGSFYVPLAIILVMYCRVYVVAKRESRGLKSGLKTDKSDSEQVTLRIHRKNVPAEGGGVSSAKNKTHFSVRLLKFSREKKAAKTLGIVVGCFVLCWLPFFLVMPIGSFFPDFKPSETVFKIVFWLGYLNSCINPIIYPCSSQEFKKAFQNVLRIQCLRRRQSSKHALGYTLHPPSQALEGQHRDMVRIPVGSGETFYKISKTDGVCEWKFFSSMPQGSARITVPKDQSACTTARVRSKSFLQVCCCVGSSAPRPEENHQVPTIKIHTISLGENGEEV
Procedure: as §1, §2
Cells were detached from the roller bottles by incubating for 15 minutes at 37° C. in a Tris-EDTA solution (10 mM Tris, 100 mM NaCl, 1 mM EDTA, pH=7.4). The cell suspension from each roller bottle was decanted into tared centrifuge tubes and kept on ice. An aliquot of each cell suspension was generally taken for cell counting. […] The supernatant was decanted and the pellet weighed to determine the wet weight of cells. Cells were washed a final time in 40 vol 5 mM Tris-HCl, 5 mM EDTA, pH=7.7, and centrifuged at 40,000×G for 10 minutes. Cells were homogenized in 10 mL of 50 mM Tris-HCl, 5 mM EDTA (pH=7.4) and diluted to 40 mL/tube. Homogenates were centrifuged at 40,000×G for 10 minutes. […]
Receptor binding assays for α-1 adrenoreceptors were performed essentially as described by Greengrass and Bremner (Eur. J. Pharmacol. 55: 323-326 (1979)). […] Radioactivity was determined by standard liquid scintillation techniques.

[6] = biological target: T5, α-1A adrenoreceptor (rat vas deferens) (Rattus norvegicus, UniProt P43140); assay: Functional antagonism: inhibition of phenylephrine-induced contraction of rat vas deferens; set-up: species or system tissue; settings: Schild
T5 construct: contraction of rat vas deferens; from tissue; host or cells: rat vas deferens
T5 sequence (P43140 1-466): T4 sequence (P43140 1-466)
Excerpt: as §4

Structure (SMILES)	urinary flow rates and subjective symptom scores, longer term studies [2]	more potent effect on spleen smooth muscle [3]	also measured
COc1ccc2c(c1)[C@@H]1CN(CCCn3c(=O)[nH]c4c(sc5ncccc54)c3=O)C[C@@H]1CO2 (racemic) [Example 77, 3-[3-((±)-cis-8-Methoxy-1,2,3,3a,4,9b-hexahydro-[1]-benzopyrano[3,4-c]pyrrol-2-yl)propyl]-pyrido[3',2':4,5]thieno[3,2-d]pyrimidine-2,4(1H,3H)-dione]	–	–	Ki [1]: 10000 nM
COc1cc2nc(N3CCN(C(=O)C4COc5ccccc5O4)CC3)nc(N)c2cc1OC (centres unmarked) [Doxazosin, doxazosin]	significant improvements in urinary flow rates and subjective symptom scores	a more potent effect on spleen smooth muscle by approximately an order of magnitude	–
COc1cccc2c1[C@@H]1CN(CCCCn3c(=O)[nH]c4c(sc5nc(Cl)ccc54)c3=O)C[C@@H]1CO2 [Example 32, 3-[4-((3aR,9bR)-cis-9-Methoxy-1,2,3,3a,4,9b-hexahydro-[1]-benzopyrano[3,4-c]pyrrol-2-yl)butyl]-7-chloro-pyrido[3',2':4,5]thieno[3,2-d]pyrimidine-2,4(1H,3H)-dione]	–	–	Ki [4]: 0.093 nM; Ki [5]: 1.01 nM; Ki ([1]; cloned hamster α-1b, LTK cell membranes, [3H]prazosin 0.2 nM): 9.95 nM; In Vitro Characterization (pA2), Rat Spleen ([3]; rat spleen, phenylephrine, Schild): 7.24; In Vitro Characterization (pA2), Rat Vas [6]: 9.46
COc1cc2nc(N3CCN(C(=O)c4ccco4)CC3)nc(N)c2cc1OC [Prazosin, prazosin]	significant improvements in urinary flow rates and subjective symptom scores	a more potent effect on spleen smooth muscle by approximately an order of magnitude	urinary incontinence during antihypertensive treatment ([2]; women, antihypertensive treatment): urinary incontinence developed in women
COc1cc2nc(N3CCN(C(=O)C4CCCO4)CC3)nc(N)c2cc1OC (centres unmarked) [Terazosin, terazosin]	significant improvements in urinary flow rates and subjective symptom scores	a more potent effect on spleen smooth muscle by approximately an order of magnitude	–
O=C(NC1CCN(CCc2c[nH]c3ccccc23)CC1)c1ccccc1 [indoramin]	significant improvements in urinary flow rates and subjective symptom scores	–	–
